Data published in ChEMBL document CHEMBL3885861, “Open TG-GATES”.

Organism: Rattus norvegicus
Experiment: Open TG-GATES - Regimen: Single
Type: toxicity, organism-based, Sprague-Dawley
Design: regimen Single, gender Male, age 6 weeks
Details: in vivo, po, 500 mg/kg, route gavage, dose level High; for APTT / Bas / Eos / Fbg / Hb / Ht / Lym / MCH / MCHC / MCV / Mono / Neu / PT / Plat / RBC / Ret / WBC: tissue Blood; for KIDNEY_TOTAL: tissue Kidney; for LIVER: tissue Liver; for A/G / ALP / ALT / AST / BUN / CRE / Ca / Cl / DBIL / GLC / IP / K / LDH / Na / PL / RALB / TBIL / TC / TG / TP / gamma-GTP: tissue Plasma

`CN(CCOc1ccc(CC2SC(=O)NC2=O)cc1)c1ccccn1.O=C(O)/C=C\C(=O)O` (centres undefined) [ROSIGLITAZONE MALEATE] was tested, and the TERMINAL_BW (3 h) was 202.9 g, the APTT (3 h) was 16.4 s and the Bas (3 h) was 0%. The Eos (3 h) was 0.6%, the Fbg (3 h) was 224.2 mg/dL and the Hb (3 h) was 13 g/dL. For the same compound, the Ht (3 h) was 39.4%, the Lym (3 h) was 77.6% and the MCH (3 h) was 21.2 pg. It also gave an MCHC (3 h) of 33.1%, an MCV (3 h) of 64.1 fL and a Mono (3 h) of 7.8%. The Neu (3 h) was 14.2%, the PT (3 h) was 12.3 s and the Plat (3 h) was 129.2 x10_4/uL. It also gave an RBC (3 h) of 613.8 x10_4/ul, a Ret (3 h) of 9.1% and a WBC (3 h) of 85.4 x10_2/uL. For the same compound, the KIDNEY_TOTAL (3 h) was 0.6 g, the LIVER (3 h) was 8.9 g and the A/G (3 h) was 2.3. For the same compound, the ALP (3 h) was 1535.8 IU/L, the ALT (3 h) was 35.8 IU/L and the AST (3 h) was 69.6 IU/L. The BUN (3 h) was 15 mg/dL, the CRE (3 h) was 0.5 mg/dL and the Ca (3 h) was 11.6 mg/dL. For the same compound, the Cl (3 h) was 102.2 meq/L, the DBIL (3 h) was 0.01 mg/dL and the GLC (3 h) was 185.2 mg/dL. It also gave an IP (3 h) of 10.5 mg/dL, a K (3 h) of 4.2 meq/L and an LDH (3 h) of 76.8 IU/L. For the same compound, the Na (3 h) was 140.4 meq/L, the PL (3 h) was 137 mg/dL and the RALB (3 h) was 3.9 g/dL. It also gave a TBIL (3 h) of 0.036 mg/dL, a TC (3 h) of 84.2 mg/dL and a TG (3 h) of 78 mg/dL. The TP (3 h) was 5.6 g/dL, the gamma-GTP (3 h) was 1 IU/L and the TERMINAL_BW (6 h) was 206.5 g. It also gave an APTT (6 h) of 16.5 s, a Bas (6 h) of 0% and an Eos (6 h) of 1%. For the same compound, the Fbg (6 h) was 217 mg/dL, the Hb (6 h) was 13.2 g/dL and the Ht (6 h) was 40%. The Lym (6 h) was 62.6%, the MCH (6 h) was 21 pg and the MCHC (6 h) was 32.9%. It also gave an MCV (6 h) of 63.8 fL, a Mono (6 h) of 11.6% and a Neu (6 h) of 24.8%. For the same compound, the PT (6 h) was 11.8 s, the Plat (6 h) was 118.4 x10_4/uL and the RBC (6 h) was 626.8 x10_4/ul. For the same compound, the Ret (6 h) was 9.7%, the WBC (6 h) was 75.4 x10_2/uL and the KIDNEY_TOTAL (6 h) was 0.7 g. It also gave an LIVER (6 h) of 8.6 g, an A/G (6 h) of 2.4 and an ALP (6 h) of 1138.8 IU/L. The ALT (6 h) was 30.8 IU/L, the AST (6 h) was 69 IU/L and the BUN (6 h) was 10 mg/dL. It also gave a CRE (6 h) of 0.5 mg/dL, a Ca (6 h) of 11 mg/dL and a Cl (6 h) of 104 meq/L. It also gave a DBIL (6 h) of 0.014 mg/dL, a GLC (6 h) of 176.4 mg/dL and an IP (6 h) of 10.6 mg/dL. It also gave a K (6 h) of 4 meq/L, an LDH (6 h) of 70.4 IU/L and a Na (6 h) of 139.6 meq/L. For the same compound, the PL (6 h) was 140.4 mg/dL, the RALB (6 h) was 3.9 g/dL and the TBIL (6 h) was 0.042 mg/dL. It also gave a TC (6 h) of 89.2 mg/dL, a TG (6 h) of 69.2 mg/dL and a TP (6 h) of 5.5 g/dL. The gamma-GTP (6 h) was 1 IU/L, the TERMINAL_BW (9 h) was 203.4 g and the APTT (9 h) was 17 s. It also gave a Bas (9 h) of 0%, an Eos (9 h) of 0.8% and a Fbg (9 h) of 211.4 mg/dL. The Hb (9 h) was 12.4 g/dL, the Ht (9 h) was 37.6% and the Lym (9 h) was 77.4%. For the same compound, the MCH (9 h) was 21.5 pg, the MCHC (9 h) was 33% and the MCV (9 h) was 65.2 fL. It also gave a Mono (9 h) of 5.2%, a Neu (9 h) of 16.6% and a PT (9 h) of 12.4 s. For the same compound, the Plat (9 h) was 128.2 x10_4/uL, the RBC (9 h) was 577 x10_4/ul and the Ret (9 h) was 9.1%. For the same compound, the WBC (9 h) was 77.4 x10_2/uL, the KIDNEY_TOTAL (9 h) was 0.6 g and the LIVER (9 h) was 7.9 g. For the same compound, the A/G (9 h) was 2.6, the ALP (9 h) was 1267.6 IU/L and the ALT (9 h) was 28.2 IU/L. The AST (9 h) was 65.4 IU/L, the BUN (9 h) was 12 mg/dL and the CRE (9 h) was 0.4 mg/dL. It also gave a Ca (9 h) of 11.8 mg/dL, a Cl (9 h) of 104.2 meq/L and a DBIL (9 h) of 0.016 mg/dL. For the same compound, the GLC (9 h) was 180.8 mg/dL, the IP (9 h) was 10.9 mg/dL and the K (9 h) was 4.6 meq/L. It also gave an LDH (9 h) of 94.6 IU/L, a Na (9 h) of 139.8 meq/L and a PL (9 h) of 114.8 mg/dL. It also gave an RALB (9 h) of 3.9 g/dL, a TBIL (9 h) of 0.048 mg/dL and a TC (9 h) of 63.6 mg/dL. The TG (9 h) was 68.6 mg/dL, the TP (9 h) was 5.4 g/dL and the gamma-GTP (9 h) was 0.4 IU/L. For the same compound, the TERMINAL_BW (24 h) was 222.1 g, the APTT (24 h) was 16.4 s and the Bas (24 h) was 0%. The Eos (24 h) was 1.2%, the Fbg (24 h) was 212.6 mg/dL and the Hb (24 h) was 12.3 g/dL. The Ht (24 h) was 37.6%, the Lym (24 h) was 65.6% and the MCH (24 h) was 21.3 pg. The MCHC (24 h) was 32.7%, the MCV (24 h) was 65.1 fL and the Mono (24 h) was 8.4%. For the same compound, the Neu (24 h) was 24.8%, the PT (24 h) was 12.1 s and the Plat (24 h) was 128.4 x10_4/uL. The RBC (24 h) was 578.4 x10_4/ul, the Ret (24 h) was 8.4% and the WBC (24 h) was 96 x10_2/uL. The KIDNEY_TOTAL (24 h) was 0.7 g, the LIVER (24 h) was 10.3 g and the A/G (24 h) was 2.7. For the same compound, the ALP (24 h) was 1526.8 IU/L, the ALT (24 h) was 34.6 IU/L and the AST (24 h) was 65.2 IU/L. The BUN (24 h) was 18 mg/dL, the CRE (24 h) was 0.4 mg/dL and the Ca (24 h) was 11.1 mg/dL. It also gave a Cl (24 h) of 104.2 meq/L, a DBIL (24 h) of 0.02 mg/dL and a GLC (24 h) of 183.8 mg/dL. It also gave an IP (24 h) of 7.9 mg/dL, a K (24 h) of 4.6 meq/L and an LDH (24 h) of 87.6 IU/L. For the same compound, the Na (24 h) was 140.4 meq/L, the PL (24 h) was 127 mg/dL and the RALB (24 h) was 3.9 g/dL. It also gave a TBIL (24 h) of 0.03 mg/dL, a TC (24 h) of 70.2 mg/dL and a TG (24 h) of 113.6 mg/dL. The TP (24 h) was 5.3 g/dL and the gamma-GTP (24 h) was 1 IU/L.
